Values after ≈ are worked out from the molar mass of the structure shown.
Experiments:
AECO001 (ATCC25922) = experiment: MIC broth microdilution, AECO001; format: cell-based, E. coli; conditions: Escherichia coli, ATCC25922, read-out: MIC AECO001
Method in brief: (§1)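 Incubation: 35° C., ambient air, 18-24 h. Medium: cation-adjusted Mueller-Hinton broth with 2-fold serial dilutions of drug. Inoculum: 3×10^5–7×10^5 CFU/mL final, per CLSI microdilution method.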

[1] = tested on: AECO063 (ATCC25922 bearing an acrAB mutation); experiment: microbe, parasite or virus in culture; format: cell-based, E. coli; conditions: Escherichia coli, ATCC25922, read-out: MIC AECO063
Method in brief: as §1

APAE001 (ATCC27853) = experiment: MIC broth microdilution, APAE001; format: cell-based, P. aeruginosa; conditions: Pseudomonas aeruginosa, ATCC27853, read-out: MIC APAE001, APAE001 is ATCC27853
Method in brief: as §1

[2] = tested on: APAE006 (strain of P. aeruginosa in which all efflux pumps are inactivated); experiment: microbe, parasite or virus in culture; format: cell-based; conditions: Pseudomonas aeruginosa, read-out: MIC APAE006, P. aeruginosa, all efflux pumps inactivated
Method in brief: (§2)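 Growth inhibition was scored by CLSI broth microdilution using cation-adjusted Mueller-Hinton broth and a final inoculum between 3×10^5 and 7×10^5 CFU/mL, incubated 18-24 hours at 35° C.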

[3] = tested on: APAE006 in the presence of 8 micrograms per milliliter of polymyxin B nonapeptide; format: cell-based, P. aeruginosa; conditions: in the presence of 8 micrograms per milliliter of polymyxin B nonapeptide
Method in brief: as §2

[4] = tested on: AABA1060 (clinical isolate of Acinetobacter baumannii); experiment: MIC broth microdilution, AABA1060; format: cell-based; conditions: Acinetobacter baumannii, read-out: MIC AABA1060
Method in brief: as §1

[5] = tested on: ASAU001 (laboratory strain of S. aureus, ATCC29213); experiment: MIC broth microdilution, ASAU001; format: cell-based; conditions: Staphylococcus aureus, ATCC29213, read-out: MIC ASAU001
Method in brief: as §1

AECO001 HSA AGP = experiment: MIC broth microdilution, AECO001 HSA AGP; format: cell-based, E. coli; conditions: Escherichia coli
Method in brief: as §1

Compound: C[C@@H](N)[C@H](NC(=O)c1ccc(C#CC#Cc2ccccc2)cc1)C(=O)NO [Example 82-4]
- MIC (AECO001 (ATCC25922)): < 2 µg/mL
- MIC [1]: < 2 µg/mL
- MIC (APAE001 (ATCC27853)): 2 to 16 µg/mL (≈ 5.53 to 44.3 µM)
- MIC [2]: < 2 µg/mL
- MIC APAE006 + PMBN [3]: A (MIC's of 2.0 μg/mL or less = A)
- MIC [4]: 2 to 16 µg/mL (≈ 5.53 to 44.3 µM)
- MIC [5]: 2 to 16 µg/mL (≈ 5.53 to 44.3 µM)
- MIC (AECO001 HSA AGP): 2 to 16 µg/mL (≈ 5.53 to 44.3 µM)

Compound: O=C(N[C@H](C(=O)NO)c1cccs1)c1ccc(C#Cc2ccc(CN3CCOCC3)cc2)cc1 [Example 67-7]
- MIC (AECO001 (ATCC25922)): < 2 µg/mL
- MIC [1]: < 2 µg/mL
- MIC (APAE001 (ATCC27853)): 2 to 16 µg/mL (≈ 4.21 to 33.6 µM)
- MIC [2]: < 2 µg/mL
- MIC APAE006 + PMBN [3]: A (MIC's of 2.0 μg/mL or less = A)
- MIC [4]: 2 to 16 µg/mL (≈ 4.21 to 33.6 µM)
- MIC [5]: > 64 µg/mL
- MIC (AECO001 HSA AGP): 2 to 16 µg/mL (≈ 4.21 to 33.6 µM)

Compound: C[C@@H](N)[C@H](NC(=O)c1ccc(/C=C/C#Cc2ccc(Cl)cc2)cc1)C(=O)NO [Example 114-10]
- MIC (AECO001 (ATCC25922)): < 2 µg/mL
- MIC [1]: < 2 µg/mL
- MIC (APAE001 (ATCC27853)): 2 to 16 µg/mL (≈ 5.03 to 40.2 µM)
- MIC [2]: < 2 µg/mL
- MIC APAE006 + PMBN [3]: A (MIC's of 2.0 μg/mL or less = A)
- MIC [4]: 2 to 16 µg/mL (≈ 5.03 to 40.2 µM)
- MIC [5]: 16 to 64 µg/mL (≈ 40.2 to 161 µM)
- MIC (AECO001 HSA AGP): 2 to 16 µg/mL (≈ 5.03 to 40.2 µM)

Compound: C[C@@H](N)[C@H](NC(=O)c1ccc(C#Cc2ccncc2)cc1)C(=O)NO [Example 133-8]
- MIC (AECO001 (ATCC25922)): 16 to 64 µg/mL (≈ 47.3 to 189 µM)
- MIC [1]: 2 to 16 µg/mL (≈ 5.91 to 47.3 µM)
- MIC (APAE001 (ATCC27853)): 2 to 16 µg/mL (≈ 5.91 to 47.3 µM)
- MIC [2]: < 2 µg/mL
- MIC APAE006 + PMBN [3]: A (MIC's of 2.0 μg/mL or less = A)
- MIC [4]: 16 to 64 µg/mL (≈ 47.3 to 189 µM)
- MIC [5]: > 64 µg/mL
- MIC (AECO001 HSA AGP): 16 to 64 µg/mL (≈ 47.3 to 189 µM)

Compound: C[C@H](O)[C@H](NC(=O)c1ccc(C#C/C=C/c2ccc(CN3CCOCC3)cc2)cc1)C(=O)NO [Example 96-2]
- MIC (AECO001 (ATCC25922)): < 2 µg/mL
- MIC [1]: < 2 µg/mL
- MIC (APAE001 (ATCC27853)): 2 to 16 µg/mL (≈ 4.31 to 34.5 µM)
- MIC [2]: < 2 µg/mL
- MIC APAE006 + PMBN [3]: A (MIC's of 2.0 μg/mL or less = A)
- MIC [4]: 2 to 16 µg/mL (≈ 4.31 to 34.5 µM)
- MIC [5]: 16 to 64 µg/mL (≈ 34.5 to 138 µM)
- MIC (AECO001 HSA AGP): 2 to 16 µg/mL (≈ 4.31 to 34.5 µM)

Compound: NC[C@H](NC(=O)c1ccc(/C=C/C#Cc2ccc(CO)cc2)cc1)C(=O)NO [Example 112-2]
- MIC (AECO001 (ATCC25922)): 2 to 16 µg/mL (≈ 5.27 to 42.2 µM)
- MIC [1]: < 2 µg/mL
- MIC (APAE001 (ATCC27853)): 2 to 16 µg/mL (≈ 5.27 to 42.2 µM)
- MIC [2]: < 2 µg/mL
- MIC APAE006 + PMBN [3]: A (MIC's of 2.0 μg/mL or less = A)
- MIC [4]: > 64 µg/mL
- MIC [5]: > 64 µg/mL
- MIC (AECO001 HSA AGP): 16 to 64 µg/mL (≈ 42.2 to 169 µM)

Compound: NC[C@H](NC(=O)c1ccc(C#CC#Cc2ccc(CO)cc2)cc1)C(=O)NO [Example 82-2]
- MIC (AECO001 (ATCC25922)): < 2 µg/mL
- MIC [1]: < 2 µg/mL
- MIC (APAE001 (ATCC27853)): < 2 µg/mL
- MIC [2]: < 2 µg/mL
- MIC APAE006 + PMBN [3]: A (MIC's of 2.0 μg/mL or less = A)
- MIC [4]: 16 to 64 µg/mL (≈ 42.4 to 170 µM)
- MIC [5]: 16 to 64 µg/mL (≈ 42.4 to 170 µM)
- MIC (AECO001 HSA AGP): 16 to 64 µg/mL (≈ 42.4 to 170 µM)

Compound: CC(C)[C@H](NC(=O)c1ccc(/C=C/C#Cc2ccc(CN3CCOCC3)cc2)cc1)C(=O)NO [Example 110-2]
- MIC (AECO001 (ATCC25922)): < 2 µg/mL
- MIC [1]: < 2 µg/mL
- MIC (APAE001 (ATCC27853)): 2 to 16 µg/mL (≈ 4.33 to 34.7 µM)
- MIC [2]: < 2 µg/mL
- MIC APAE006 + PMBN [3]: A (MIC's of 2.0 μg/mL or less = A)
- MIC [4]: 2 to 16 µg/mL (≈ 4.33 to 34.7 µM)
- MIC [5]: > 64 µg/mL
- MIC (AECO001 HSA AGP): 2 to 16 µg/mL (≈ 4.33 to 34.7 µM)

Compound: O=C(N[C@@H](Cn1cncn1)C(=O)NO)c1ccc(/C=C/C#Cc2ccc(CN3CCOCC3)cc2)cc1 [Example 110-10]
- MIC (AECO001 (ATCC25922)): < 2 µg/mL
- MIC [1]: < 2 µg/mL
- MIC (APAE001 (ATCC27853)): 2 to 16 µg/mL (≈ 4 to 32 µM)
- MIC [2]: < 2 µg/mL
- MIC APAE006 + PMBN [3]: A (MIC's of 2.0 μg/mL or less = A)
- MIC [4]: 16 to 64 µg/mL (≈ 32 to 128 µM)
- MIC [5]: 16 to 64 µg/mL (≈ 32 to 128 µM)
- MIC (AECO001 HSA AGP): 2 to 16 µg/mL (≈ 4 to 32 µM)

Compound: C[C@@H](NC(=O)CNC1CC1)[C@H](NC(=O)c1ccc(C#Cc2ccc(CO)cc2)cc1)C(=O)NO [Example 137-3]
- MIC (AECO001 (ATCC25922)): < 2 µg/mL
- MIC [1]: < 2 µg/mL
- MIC (APAE001 (ATCC27853)): 2 to 16 µg/mL (≈ 4.31 to 34.4 µM)
- MIC [2]: < 2 µg/mL
- MIC APAE006 + PMBN [3]: A (MIC's of 2.0 μg/mL or less = A)
- MIC [4]: 16 to 64 µg/mL (≈ 34.4 to 138 µM)
- MIC [5]: 16 to 64 µg/mL (≈ 34.4 to 138 µM)
- MIC (AECO001 HSA AGP): 2 to 16 µg/mL (≈ 4.31 to 34.4 µM)

Compound: CC(C)(O)[C@H](NC(=O)c1ccc(/C=C/C#Cc2ccc(CO)cc2)cc1)C(=O)NO [Example 112-5]
- MIC (AECO001 (ATCC25922)): < 2 µg/mL
- MIC [1]: < 2 µg/mL
- MIC (APAE001 (ATCC27853)): < 2 µg/mL
- MIC [2]: < 2 µg/mL
- MIC APAE006 + PMBN [3]: A (MIC's of 2.0 μg/mL or less = A)
- MIC [4]: < 2 µg/mL
- MIC [5]: 16 to 64 µg/mL (≈ 39.2 to 157 µM)
- MIC (AECO001 HSA AGP): 2 to 16 µg/mL (≈ 4.9 to 39.2 µM)

Compound: C[C@@H](N)[C@H](NC(=O)c1ccc(C#C/C=C/c2ccc(CO)cc2)cc1)C(=O)NO [Example 101-3]
- MIC (AECO001 (ATCC25922)): < 2 µg/mL
- MIC [1]: < 2 µg/mL
- MIC (APAE001 (ATCC27853)): < 2 µg/mL
- MIC [2]: < 2 µg/mL
- MIC APAE006 + PMBN [3]: A (MIC's of 2.0 μg/mL or less = A)
- MIC [4]: 2 to 16 µg/mL (≈ 5.08 to 40.7 µM)
- MIC [5]: 16 to 64 µg/mL (≈ 40.7 to 163 µM)
- MIC (AECO001 HSA AGP): 2 to 16 µg/mL (≈ 5.08 to 40.7 µM)

Compound: O=C(CNC1CC1)NC[C@H](NC(=O)c1ccc(C#CC#Cc2ccccc2)cc1)C(=O)NO [Example 85-1, N—[(S)-2-(2-Cyclopropylamino-acetylamino)-1-hydroxycarbamoyl-ethyl]-4-(4-phenyl-buta-1,3-diynyl)-benzamide]
- MIC (AECO001 (ATCC25922)): < 2 µg/mL
- MIC [1]: < 2 µg/mL
- MIC (APAE001 (ATCC27853)): 2 to 16 µg/mL (≈ 4.5 to 36 µM)
- MIC [2]: < 2 µg/mL
- MIC APAE006 + PMBN [3]: A (MIC's of 2.0 μg/mL or less = A)
- MIC [4]: 16 to 64 µg/mL (≈ 36 to 144 µM)
- MIC [5]: 16 to 64 µg/mL (≈ 36 to 144 µM)
- MIC (AECO001 HSA AGP): 2 to 16 µg/mL (≈ 4.5 to 36 µM)

— patent publication US9617256B2 (priority 2007, dated 2017)
